Experimental data as given in patent US12281114B2, “NK3 modulators and uses thereof” (Kallyope, Inc., priority 2023, dated 2025).

biological target: T1, human NK3 (Homo sapiens, UniProt P29371); assay: FLIPR calcium assay in antagonist mode (NKB EC70 challenge); assay type: cell-based; details: stable cell line expressing human recombinant NK3; antagonist mode vs EC70 of NKB agonist
T1 sequence (P29371 1-465): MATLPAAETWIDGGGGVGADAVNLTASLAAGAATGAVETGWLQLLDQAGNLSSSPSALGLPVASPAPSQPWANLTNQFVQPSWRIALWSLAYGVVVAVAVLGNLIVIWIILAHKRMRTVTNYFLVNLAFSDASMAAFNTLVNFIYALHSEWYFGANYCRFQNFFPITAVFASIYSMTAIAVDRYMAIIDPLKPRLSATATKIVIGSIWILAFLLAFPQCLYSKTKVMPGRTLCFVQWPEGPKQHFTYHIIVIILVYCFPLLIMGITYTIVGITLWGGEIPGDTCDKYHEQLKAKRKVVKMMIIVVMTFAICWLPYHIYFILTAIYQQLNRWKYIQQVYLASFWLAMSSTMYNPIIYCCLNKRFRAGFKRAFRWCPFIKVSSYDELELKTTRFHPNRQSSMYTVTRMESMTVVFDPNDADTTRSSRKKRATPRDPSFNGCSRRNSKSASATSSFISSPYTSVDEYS
Experimental: Stable Cell Lines: A human recombinant NK3 Tachykinin Receptor stable cell line was purchased from GenScript (Genscript, Cat. #M00201; GenBank Accession Number NM 001059). The cell line was cultured according to manufacturer instructions, using 100 μg/mL Hygromycin B (Invitrogen, Cat. #D2650) for selective pressure. Cells were then collected using 0.05% Trypsin-EDTA (GIBCO, Cat. #25300) and frozen in a freezing media containing 90% FBS (Gibco, Cat. #10099-141) and 10% DMSO (Sigma, Cat. #D2650) at a density of 30×10^6 cells/mL. This bank of assay-ready frozen cells was later used in FLIPR assays to evaluate the potency and efficacy of NK3 antagonist test compounds.
FLIPR Calcium Assay: The FLIPR assay, used to measure changes in intracellular calcium levels, was performed in a 384-well plate format using the FLIPR Calcium 6 assay kit (Molecular Devices, Cat. #R8190). Assay-ready frozen cells expressing human NK3 (Genscript, Cat. #M00201) were thawed, washed, trypsinized, counted using a ViCell, and plated in cell growth media without Hygromycin at a density of […] (40 μL/well).
Calculation of NKB EC70: An EC70 concentration of NKB needed to be determined for competition against test antagonists prior to the compound screen. NKB agonist (Phoenix Pharmaceuticals, Cat. #046-26) was diluted in DMSO at 1800 nM (6-fold the final concentration) and serially diluted to generate a 13-point dose response curve (3-fold serial dilution) using an ECHO. 20 μL of 1× stimulation buffer was added using the BRAVO. 10 μL of DMSO was added while on the FLIPR (described as the first addition), then the RFU signal was measured for 10 minutes. The NKB titration was added to the plate, then the RFU signal was measured for 10 minutes (described as the second addition) on the FLIPR. The EC70 concentration was determined by using a four-parameter fit on GraphPad Prism prior to performing the compound screen.
FLIPR Screen in Antagonist Mode: Test compounds were prepared at 60 μM (6-fold the final concentration) and spotted in 370 nL using the Janus and ECHO. 20 μL of assay buffer was added using the BRAVO. Calcium-sensitive dye was reconstituted in loading buffer (Molecular Devices, Cat. #R8190). Media was removed from the cell plate using a Bluecat Cell Washer, and 40 μL of dye was added to the cell plate using the Apricot. The plate was incubated for 2 hours at 37° C., 5% CO2, then transferred to the FLIPR instrument. 10 μL of compound was added on the FLIPR (described as the first addition), then the RFU signal was measured for 10 minutes. EC70 of NKB agonist was added to the entire plate (described as the second addition), and the RFU signal was measured for 10 minutes on the FLIPR. RFU (relative fluorescence units) signals for first baseline, first peak, second baseline, and second peak were measured using the FLIPR. RFU signal (second peak minus second baseline) for positive (Max, at 10 μM antagonist) and negative (Min, at 0 μM antagonist) controls were used to normalize data and generate values for % Activity. IC50 and efficacy values were determined using a standard curve fitting equation on Dotmatics.

Structure (SMILES) | IC50 [nM]
Cc1nn(C)cc1-c1ccccc1-c1nc2cc(C(=O)N[C@@H]3CO[C@H]4[C@@H]3OC[C@H]4N)ccn2c1Cl [Compound 794] | 8.45
Cn1cc(-c2ccccc2-c2nc3cc(C(=O)N4C[C@@H]5C[C@H]4C(=O)N5)ccn3c2Cl)c(C#N)n1 [Compound 795] | 12.5
Cc1nn(C)cc1-c1cccc(F)c1-c1nc2cc(C(=O)N3CCN(C(CO)CO)CC3)ccn2c1Cl [Compound 796] | 4.11
Cc1nn(C)cc1-c1ccccc1-c1nc2cc(C(=O)NC[C@@H](C)N3CCNCC3)ccn2c1Cl [Compound 797] | 4.63
Cc1nn(C)cc1-c1ccccc1-c1nc2cc(C(=O)N3C[C@@H]4NCCN[C@@H]4C3)ccn2c1Cl [Compound 798] | 22.4
Cc1nn(C)cc1-c1cccc(F)c1-c1nc2cc(C(=O)N3CCNCC3)ccn2c1Cl [Compound 799] | 4.7
Cc1nn(C)cc1-c1ccc(F)cc1-c1nc2cc(C(=O)N3C[C@@H]4C[C@H]3C(=O)N4)ccn2c1Cl [Compound 800] | 8.07
Cc1c(-c2ccccc2-c2nc3cc(C(=O)N[C@@H]4CO[C@H]5[C@@H]4OC[C@H]5O)ccn3c2Cl)cnn1CC1CC1 [Compound 801] | 22
O=C1N[C@H]2C[C@@H]1N(C(=O)c1ccn3c(Cl)c(-c4ccccc4-c4cnn(C(F)(F)F)c4C(F)(F)F)nc3c1)C2 [Compound 816] | 8.46
C[C@]1(O)C[C@H](NC(=O)c2ccn3c(Cl)c(-c4ccccc4-c4cn(C(F)F)nc4Cl)nc3c2)C1 [Compound 819] | 6.12
Cc1nn(C)cc1-c1cc(F)ccc1-c1nc2cc(C(=O)NC34CNC(C3)C4)ccn2c1Cl [Compound 822] | 9.61
Cc1nn(C)cc1-c1c(F)cncc1-c1nc2cc(C(=O)N[C@H]3C[C@](C)(O)C3)ccn2c1Cl [Compound 824] | 5.89
Cc1nn(C)cc1-c1ccncc1-c1nc2cc(C(=O)N[C@H]3C[C@](C)(O)C3)ccn2c1Cl [Compound 825] | 7.72
CC1(O)CCN(C(=O)c2ccn3c(Cl)c(-c4c(F)cc(F)cc4-c4c[nH]nc4F)nc3c2)CC1 [Compound 829] | 8.27
O=C(NC1CS(=O)(=O)C1)c1ccn2c(Cl)c(-c3c(F)cc(F)cc3-c3c[nH]nc3F)nc2c1 [Compound 830] | 6.63
Cn1ncc(-c2cc(F)cc(F)c2-c2nc3cc(C(=O)N[C@H]4C[C@@](C)(O)C4)ccn3c2Cl)c1F [Compound 832] | 6.91
O=C(NCC1(O)COC1)c1ccn2c(F)c(-c3c(F)cc(F)cc3-c3c[nH]nc3Cl)nc2c1 [Compound 834] | 6.01
Cn1cc(-c2cccc(F)c2-c2nc3cc(C(=O)N[C@H]4C[C@@](C)(O)C4)ccn3c2Cl)cn1 [Compound 835] | 6.24
Cn1cc(-c2cccc(F)c2-c2nc3cc(C(=O)NC45COC(CO)(C4)C5)ccn3c2Cl)c(F)n1 [Compound 838] | 5.17

Stronger by IC50, values ahead:

IC50 [nM] | Structure (SMILES)
0.72 | Cn1cc(-c2cccc(F)c2-c2nc3cc(C(=O)N[C@H]4C[C@@](C)(O)C4)ccn3c2Cl)c(F)n1 [Compound 791, 3-chloro-2-(2-fluoro-6-(3-fluoro-1-methyl-1H-pyrazol-4-yl)phenyl)-N-((1s,3s)-3-hydroxy-3-methylcyclobutyl)imidazo[1,2-a]pyridine-7-carboxamide]
2.09 | Cc1nn(C)cc1-c1ccccc1-c1nc2cc(C(=O)N3CCC4(CC(CO)C4)C3)ccn2c1Cl (centres unmarked) [Compound 792]
1.19 | Cc1nn(C)cc1-c1ccccc1-c1nc2cc(C(=O)N[C@H]3C[C@H](C(C)(C)O)C3)ccn2c1Cl [Compound 793]
3.33 | Cc1nn(C)cc1-c1cc(F)cc(F)c1-c1nc2cc(C(=O)N3CC4(O)CC3C4)ccn2c1Cl [Compound 814]
1.92 | Cc1nn(C)cc1-c1c(F)c(F)cc(F)c1-c1nc2cc(C(=O)N3C[C@@H]4C[C@H]3C(=O)N4)ccn2c1Cl [Compound 817]
0.99 | C[C@]1(O)C[C@H](NC(=O)c2ccn3c(Cl)c(-c4ccccc4-c4cnn(C(F)F)c4Cl)nc3c2)C1 [Compound 818]
0.77 | C[C@]1(O)C[C@H](NC(=O)c2ccn3c(Cl)c(-c4ccccc4-c4cnn(C(F)(F)F)c4Cl)nc3c2)C1 [Compound 820]
2.49 | C[C@]1(O)C[C@H](NC(=O)c2ccn3c(Cl)c(-c4ccccc4-c4cn(C(F)(F)F)nc4Cl)nc3c2)C1 [Compound 821]
3.25 | Cc1nn(C)cc1-c1cncc(F)c1-c1nc2cc(C(=O)N[C@H]3C[C@@](C)(O)C3)ccn2c1Cl [Compound 823]
1.4 | C[C@]1(O)C[C@H](NC(=O)c2ccn3c(Cl)c(-c4ccccc4-c4cn(C5CC5)nc4Cl)nc3c2)C1 [Compound 826]
0.3 | Cn1cc(-c2cccc(F)c2-c2nc3cc(C(=O)N[C@H]4C[C@](C)(O)C4)ccn3c2Cl)c(F)n1 [Compound 828]
3.66 | Cc1c(-c2c(F)cc(F)cc2-c2cn(C)nc2F)nc2cc(C(=O)N[C@H]3C[C@@](C)(O)C3)ccn12 [Compound 831]
2.68 | CO[C@H]1C[C@@H](NC(=O)c2ccn3c(F)c(-c4c(F)cc(F)cc4-c4c[nH]nc4Cl)nc3c2)C1 [Compound 833]
1.1 | CC(C)(O)C12CC(NC(=O)c3ccn4c(F)c(-c5c(F)cccc5-c5c[nH]nc5F)nc4c3)(C1)C2 [Compound 836]
1.01 | Cn1cc(-c2cccc(F)c2-c2nc3cc(C(=O)N[C@@H]4CC[C@@H](CO)OC4)ccn3c2Cl)c(F)n1 [Compound 837]
0.46 | Cn1cc(-c2cccc(F)c2-c2nc3cc(C(=O)NCC45CC(CO)(CO4)C5)ccn3c2Cl)c(F)n1 [Compound 839]
0.58 | Cn1cc(-c2cccc(F)c2-c2nc3cc(C(=O)NC4CC5(COC5)C4)ccn3c2Cl)c(F)n1 [Compound 840]
1.25 | Cn1cc(-c2cccc(F)c2-c2nc3cc(C(=O)N[C@H]4C[C@@](O)(CO)C4)ccn3c2Cl)c(F)n1 [Compound 841]
1.38 | Cn1cc(-c2cccc(F)c2-c2nc3cc(C(=O)N4CC5(C4)CC(C)(O)C5)ccn3c2Cl)c(F)n1 [Compound 842]
1.08 | Cn1cc(-c2cccc(F)c2-c2nc3cc(C(=O)N[C@H]4C[C@](O)(CO)C4)ccn3c2Cl)c(F)n1 [Compound 843]
0.42 | Cn1cc(-c2cccc(F)c2-c2nc3cc(C(=O)NC[C@H]4C[C@@](C)(O)C4)ccn3c2Cl)c(F)n1 [Compound 844]
3.57 | C[C@H]1C[C@H](NC(=O)c2ccn3c(Cl)c(-c4c(F)cc(F)cc4-c4c[nH]nc4F)nc3c2)C1 [Compound 847]
2 | COC12CC(NC(=O)c3ccn4c(Cl)c(-c5c(F)cc(F)cc5-c5c[nH]nc5F)nc4c3)(C1)C2 [Compound 848]
0.94 | Cn1cc(-c2ccccc2-c2nc3cc(C(=O)NC4CC5(C4)CS(=O)(=O)C5)ccn3c2Cl)c(F)n1 [Compound 849]
0.31 | Cn1cc(-c2cccc(F)c2-c2nc3cc(C(=O)NCC45CC(CO)(CCO4)C5)ccn3c2Cl)c(F)n1 [Compound 850]
1.93 | O=C(NC1CC(CO)(CO)C1)c1ccn2c(Cl)c(-c3c(F)cc(F)cc3-c3cnn(C4CC4)c3F)nc2c1 [Compound 851]
0.97 | O=C(N[C@@H]1C[C@@H](O)[C@@H](O)C1)c1ccn2c(Cl)c(-c3c(F)cccc3-c3cn(C4CC4)nc3F)nc2c1 [Compound 852]
0.97 | Cn1cc(-c2cccc(F)c2-c2nc3cc(C(=O)NC4CC5(CC(O)C5)C4)ccn3c2Cl)c(F)n1 (centres unmarked) [Compound 853]
